In patent US20060293307A1, “Oxazolidinone derivatives as antimicrobials” (priority 2002, published 2006):
Where two headings read alike, the source gives them in different places.

Experiments:
Assay in all cases: MIC, agar incorporation method
S. aureus ATCC 25923 = assay type: cell-based, Staphylococcus aureus
S. aureus ATCC29213 = assay type: cell-based, Staphylococcus aureus
S. aureus SG 511 = assay type: cell-based, Staphylococcus aureus
S. aureus (MRSA) 21299 = assay type: cell-based, Staphylococcus aureus
[1] = system: S. aureus (MRSA 33) Cipro R; assay type: cell-based, Staphylococcus aureus
(MRSA) 562 = assay type: cell-based, Staphylococcus aureus
S. aureus (Smith 49951) = assay type: cell-based, Staphylococcus aureus
[2] = system: S. epidermidis (MRSE)32965; assay type: cell-based, Staphylococcus epidermidis
S. haemo ATCC 29970 = assay type: cell-based
E. faecalis 29212 = assay type: cell-based
E. faecium 398(VRE) = assay type: cell-based, Enterococcus faecium
E. durans 581 = assay type: cell-based
E. coli 25922 = assay type: cell-based
P. aeruginosa ATCC 27853 = assay type: cell-based
[3] = system: Serratia marcescens 12999; assay type: cell-based
Acinetobacter 9956 = assay type: cell-based
S. pneumoniae AB4 = assay type: cell-based, Streptococcus pneumoniae
S. pneumoniae CS1221 = assay type: cell-based, Streptococcus pneumoniae
S. pneumoniae AB 10 = assay type: cell-based, Streptococcus pneumoniae
S. pneumoniae AB 31 = assay type: cell-based, Streptococcus pneumoniae
S. pneumoniae AB 14 = assay type: cell-based, Streptococcus pneumoniae
S. pneumoniae 217 = assay type: cell-based, Streptococcus pneumoniae
S. pneumoniae AB 16 = assay type: cell-based, Streptococcus pneumoniae
S. pneumoniae AB 17 = assay type: cell-based, Streptococcus pneumoniae
S. pneumoniae AB 21 = assay type: cell-based, Streptococcus pneumoniae
S. pneumoniae CS 1687 = assay type: cell-based, Streptococcus pneumoniae
S. pneumoniae AB 25 = assay type: cell-based, Streptococcus pneumoniae
S. pneumoniae AB 29 = assay type: cell-based, Streptococcus pneumoniae
S. pneumoniae AB 34 = assay type: cell-based, Streptococcus pneumoniae
S. pneumoniae ATCC 6303 = assay type: cell-based, Streptococcus pneumoniae
S. pyogenes 19615 = assay type: cell-based, Streptococcus pyogenes
S. pyogenes 20361 = assay type: cell-based, Streptococcus pyogenes
S pneumoniae 1294. = assay type: cell-based, Streptococcus pneumoniae
S. pneumoniae 1275 = assay type: cell-based, Streptococcus pneumoniae
Moraxella M1 = assay type: cell-based
Moraxella cata. M2 = assay type: cell-based
[4] = Staphylococcus aureus, ATCC25923
[5] = Staphylococcus aureus, ATCC29213
[6] = Staphylococcus epidermidis, MRSE
[7] = Pseudomonas aeruginosa, ATCC27853
[8] = Streptococcus pneumoniae, CS1221
[9] = Streptococcus pneumoniae, CS1687
[10] = Streptococcus pneumoniae, ATCC6303
[11] = Streptococcus pneumoniae, 1294.
[12] = S. No. 5, S. aureus (MRSA) 21299
[13] = S. No. 7, S. aureus (MRSA 33) Cipro R
[14] = S. No. 9, S. aureus (Smith 49951)
[15] = S. No. 13, S. epidermidis (MRSE)32965
[16] = S. No. 28, P. aeruginosa ATCC 27853
[17] = S. No. 29, Serratia marcescens 12999
[18] = S. No. 34, S. pneumoniae CS1221
[19] = S. No. 44, S. pneumoniae CS 1687
[20] = S. No. 50, S. pneumoniae ATCC 6303

Measured: MIC

CC(=O)NC[C@H]1CN(c2ccc(N3CCOCC3)c(F)c2)C(=O)O1 [Linezolid, reference compound]
1 µg/mL: S. aureus (MRSA) 21299; Staphylococcus aureus, MRSA | [1]; Staphylococcus aureus, MRSA | (MRSA) 562; Staphylococcus aureus, MRSA | S. aureus (Smith 49951); Staphylococcus aureus | [2]; [6] | E. faecium 398(VRE); Enterococcus faecium, VRE | E. durans 581; Enterococcus durans, 581 | S. pneumoniae AB 31; Streptococcus pneumoniae, AB31 | S. pneumoniae AB 14; Streptococcus pneumoniae, AB14 | S. pneumoniae 217; Streptococcus pneumoniae, 217 | S. pneumoniae AB 16; Streptococcus pneumoniae, AB16 | S. pneumoniae AB 17; Streptococcus pneumoniae, AB17 | S. pneumoniae AB 21; Streptococcus pneumoniae, AB21 | S. pneumoniae CS 1687; [9] | S. pneumoniae AB 25; Streptococcus pneumoniae, AB25 | S. pneumoniae AB 29; Streptococcus pneumoniae, AB29 | S. pneumoniae ATCC 6303; [10] | S. pyogenes 19615; Streptococcus pyogenes, 19615 | S. pyogenes 20361; Streptococcus pyogenes, 20361 | S pneumoniae 1294.; [11] | S. pneumoniae 1275; Streptococcus pneumoniae, 1275
2 µg/mL: S. aureus ATCC 25923; [4] | S. aureus ATCC29213; [5] | S. aureus SG 511; Staphylococcus aureus, SG511 | E. faecalis 29212; Enterococcus faecalis, 29212 | S. pneumoniae AB 34; Streptococcus pneumoniae, AB34
< 0.5 µg/mL: S. haemo ATCC 29970
> 16 µg/mL: E. coli 25922; Escherichia coli, 25922 | P. aeruginosa ATCC 27853; [7] | [3]; Serratia marcescens, 12999 | Acinetobacter 9956; Acinetobacter, 9956
4 µg/mL: Moraxella M1; Moraxella, M1 | Moraxella cata. M2; Moraxella, CATA.M2
0.25 µg/mL: S. pneumoniae AB4; Streptococcus pneumoniae, AB4 | S. pneumoniae CS1221; [8] | S. pneumoniae AB 10; Streptococcus pneumoniae, AB10

CN[C@H](CC(C)C)C(=O)N[C@H]1C(=O)N[C@@H](CC(N)=O)C(=O)N[C@H]2C(=O)N[C@H]3C(=O)N[C@H](C(=O)N[C@H](C(=O)O)c4cc(O)cc(O)c4-c4cc3ccc4O)[C@H](O)c3ccc(c(Cl)c3)Oc3cc2cc(c3O[C@@H]2O[C@H](CO)[C@@H](O)[C@H](O)[C@H]2O[C@H]2C[C@](C)(N)[C@H](O)[C@H](C)O2)Oc2ccc(cc2Cl)[C@H]1O [Vancomycin, reference compound]
> 8 µg/mL: Moraxella M1; Moraxella, M1 | Moraxella cata. M2; Moraxella, CATA.M2
0.25 µg/mL: S. pneumoniae AB4; Streptococcus pneumoniae, AB4 | S. pneumoniae CS1221; [8] | S. pneumoniae AB 10; Streptococcus pneumoniae, AB10 | S. pneumoniae AB 31; Streptococcus pneumoniae, AB31 | S. pneumoniae AB 14; Streptococcus pneumoniae, AB14 | S. pneumoniae AB 16; Streptococcus pneumoniae, AB16 | S. pneumoniae AB 17; Streptococcus pneumoniae, AB17 | S. pneumoniae AB 21; Streptococcus pneumoniae, AB21 | S. pneumoniae CS 1687; [9] | S. pneumoniae AB 25; Streptococcus pneumoniae, AB25 | S. pneumoniae AB 29; Streptococcus pneumoniae, AB29 | S. pneumoniae AB 34; Streptococcus pneumoniae, AB34 | S. pneumoniae ATCC 6303; [10]
1 µg/mL: S. aureus ATCC 25923; [4] | (MRSA) 562; Staphylococcus aureus, MRSA | S. aureus (Smith 49951); Staphylococcus aureus | S. haemo ATCC 29970
0.5 µg/mL: S. aureus ATCC29213; [5] | S. aureus SG 511; Staphylococcus aureus, SG511 | S. aureus (MRSA) 21299; Staphylococcus aureus, MRSA | [1]; Staphylococcus aureus, MRSA | S. pneumoniae 217; Streptococcus pneumoniae, 217 | S. pyogenes 19615; Streptococcus pyogenes, 19615 | S. pyogenes 20361; Streptococcus pyogenes, 20361 | S pneumoniae 1294.; [11] | S. pneumoniae 1275; Streptococcus pneumoniae, 1275
4 µg/mL: E. faecalis 29212; Enterococcus faecalis, 29212
> 16 µg/mL: E. faecium 398(VRE); Enterococcus faecium, VRE | E. durans 581; Enterococcus durans, 581 | E. coli 25922; Escherichia coli, 25922 | P. aeruginosa ATCC 27853; [7] | [3]; Serratia marcescens, 12999 | Acinetobacter 9956; Acinetobacter, 9956
2 µg/mL: [2]; [6]

O=C(NC[C@H]1CN(c2ccc(N3CCN(c4ccc([N+](=O)[O-])s4)CC3)c(F)c2)C(=O)O1)C(Cl)Cl [compound 9, (S)—N-[[3-[-3-Fluoro-4-[N-1-(5-nitro-2-thienyl)-piperazinyl]phenyl] -2-oxo-5-oxazolidinyl]methyl]dichloroacetamide]
0.25 µg/mL: S. pneumoniae AB4; S. No. 33, S. pneumoniae AB4 | S. pneumoniae CS1221; [18] | S. pneumoniae AB 10; S. No. 35, S. pneumoniae AB 10 | S. pneumoniae AB 31; S. No. 36, S. pneumoniae AB 31 | S. pneumoniae AB 14; S. No. 37, S. pneumoniae AB 14 | S. pneumoniae 217; S. No. 38, S. pneumoniae 217 | S. pneumoniae AB 16; S. No. 39, S. pneumoniae AB 16 | S. pneumoniae AB 17; S. No. 40, S. pneumoniae AB 17 | S. pneumoniae AB 21; S. No. 41, S. pneumoniae AB 21 | S. pneumoniae AB 25; S. No. 45, S. pneumoniae AB 25 | S. pneumoniae AB 29; S. No. 46, S. pneumoniae AB 29 | S. pneumoniae ATCC 6303; [20] | S. pneumoniae 1275; S. No. 57, S. pneumoniae 1275
1 µg/mL: S. aureus (MRSA) 21299; [12] | [1]; [13] | (MRSA) 562; S. No. 8, (MRSA) 562 | E. faecalis 29212; S. No. 17, E. faecalis 29212 | Moraxella M1; S. No. 58, Moraxella M1 | Moraxella cata. M2; S. No. 59, Moraxella cata. M2
2 µg/mL: S. aureus ATCC 25923; S. No. 1, organism cell empty | S. aureus ATCC29213; S. No. 2, S. aureus ATCC29213
0.5 µg/mL: S. aureus SG 511; S. No. 3, S. aureus SG 511 | S. aureus (Smith 49951); [14] | [2]; [15] | S. haemo ATCC 29970; S. No. 15, S. haemo ATCC 29970 | E. faecium 398(VRE); S. No. 22, E. faecium 398(VRE) | E. durans 581; S. No. 24, E. durans 581 | S. pneumoniae CS 1687; [19] | S. pneumoniae AB 34; S. No. 49, S. pneumoniae AB 34 | S. pyogenes 19615; S. No. 51, S. pyogenes 19615 | S. pyogenes 20361; S. No. 53, S. pyogenes 20361 | S pneumoniae 1294.; S. No. 55, S pneumoniae 1294.
>8 µg/mL: E. coli 25922; S. No. 25, E. coli 25922 | P. aeruginosa ATCC 27853; [16] | [3]; [17] | Acinetobacter 9956; S. No. 30, Acinetobacter 9956

(S)—N-[[3-[-3-Fluoro-4-[(5-nitro-2-thienyl)-3-methyl-1-piperazinyl]phenyl]-2-oxo-5-oxazolidinyl]methyl]acetamide [Compound No. 10]
0.5 µg/mL: S. aureus SG 511; S. No. 3, S. aureus SG 511 | [2]; [15] | E. faecium 398(VRE); S. No. 22, E. faecium 398(VRE) | E. durans 581; S. No. 24, E. durans 581 | S. pneumoniae AB4; S. No. 33, S. pneumoniae AB4 | S. pneumoniae CS1221; [18] | S. pneumoniae AB 31; S. No. 36, S. pneumoniae AB 31 | S. pneumoniae AB 14; S. No. 37, S. pneumoniae AB 14 | S. pneumoniae 217; S. No. 38, S. pneumoniae 217 | S. pneumoniae AB 16; S. No. 39, S. pneumoniae AB 16 | S. pneumoniae AB 17; S. No. 40, S. pneumoniae AB 17 | S. pneumoniae AB 21; S. No. 41, S. pneumoniae AB 21 | S. pneumoniae CS 1687; [19] | S. pneumoniae AB 25; S. No. 45, S. pneumoniae AB 25 | S. pneumoniae AB 29; S. No. 46, S. pneumoniae AB 29 | S. pneumoniae ATCC 6303; [20] | S. pyogenes 19615; S. No. 51, S. pyogenes 19615 | S. pyogenes 20361; S. No. 53, S. pyogenes 20361 | S pneumoniae 1294.; S. No. 55, S pneumoniae 1294.
>8 µg/mL: E. coli 25922; S. No. 25, E. coli 25922 | P. aeruginosa ATCC 27853; [16] | [3]; [17] | Acinetobacter 9956; S. No. 30, Acinetobacter 9956
1 µg/mL: S. aureus ATCC 25923; S. No. 1, organism cell empty | S. aureus ATCC29213; S. No. 2, S. aureus ATCC29213 | S. aureus (MRSA) 21299; [12] | [1]; [13] | (MRSA) 562; S. No. 8, (MRSA) 562 | S. aureus (Smith 49951); [14] | E. faecalis 29212; S. No. 17, E. faecalis 29212 | S. pneumoniae AB 34; S. No. 49, S. pneumoniae AB 34
2 µg/mL: Moraxella M1; S. No. 58, Moraxella M1 | Moraxella cata. M2; S. No. 59, Moraxella cata. M2
0.25 µg/mL: S. haemo ATCC 29970; S. No. 15, S. haemo ATCC 29970 | S. pneumoniae AB 10; S. No. 35, S. pneumoniae AB 10 | S. pneumoniae 1275; S. No. 57, S. pneumoniae 1275
